The subject of test [1] is T. cruzi amastigotes within Vero cells. The experiment in a line: Drug sensitivity assay against T. cruzi-infected Vero cells (intracellular amastigotes). The test is classed as cell-based, Trypanosoma cruzi. The following applies: for EC50: Trypanosoma cruzi, Vero. The method, then:
The clonal Leishmania donovani cell line LdBOB (derived from MHOM/SD/62/1S-CL2D) was grown as either promastigotes or axenic amastigotes in media specific for each developmental stage, as previously described ([32]). T. cruzi epimastigotes from the Silvio strain (MHOM/BR/78/Silvio; clone X10/7A [33]) were grown at 28°C in RTH/FBS (RPMI 1640 medium supplemented with Trypticase, hemin, HEPES, and 10% heat-inactivated fetal calf serum (FCS) [Fisher Scientific]) ([34]). Bloodstream form T. brucei “single marker” S427 (T7RPOL TETR NEO) were cultured in the presence of G418 (15 μg ml^−1) at 37°C in HMI9-T media in the presence of 5% CO2. HepG2 cells (ECACC 85011430) were obtained from European Collection of Authenticated Cell Culture (ECACC). Cells were maintained in full growth medium (minimal essential medium [MEM] with GlutaMAX (Thermo Fisher), supplemented with 1% MEM nonessential amino acids (Sigma) and 10% heat-inactivated FBS and cultured at 37°C in the presence of 5% CO2. Cells were passaged twice weekly by detaching adherent cells with 0.05% trypsin/EDTA (Sigma) and diluted into fresh media. Cells were never grown beyond 80% confluence. Vero cells (African green monkey kidney cells; ECCAC 84113001) were maintained at 37°C, 5% CO2 in Dulbecco modified Eagle medium (DMEM; Lonza) supplemented with 10% FCS and subcultured every 2 days. T. cruzi metacyclic trypomastigotes were obtained from late-log-phase epimastigote cultures (initial inoculum, 10^6 ml^−1) after ca. 7 to 10 days at 28°C in RTH/FBS. Trypomastigote-rich cultures were incubated with Vero cells overnight at 37°C and 5% CO2 in DMEM/10% FCS. The following day, extracellular parasites were removed by washing the Vero cell monolayer three times. Infected monolayers were maintained at 37°C and in 5% CO2, DMEM/10% FCS was replaced every 48 h until the trypomastigotes reemerged from the Vero cells ([9]).
Drug sensitivity assays against T. cruzi-infected Vero cells were carried out as previously described ([37]); however, in this instance, assays were carried out in 96-well plates. Data were processed using GRAFIT (Erithacus software) and fitted to a two-parameter equation, as described above.

For test [2], the system named is L. donovani axenic amastigote. The experiment in a line: L. donovani axenic amastigote drug sensitivity assay. The test is classed as cell-based. The conditions noted are these: Leishmania donovani, weighted mean, n ≥ 3, read-out: Mean compound 1 EC50 ± SD. The method, then:
(§1) L. donovani promastigote ([35]), axenic amastigote ([25]), and T. brucei bloodstream form ([36]) drug sensitivity assays were carried out as previously described. HepG2 monolayers were washed twice in PBS, detached with 0.05% trypsin/EDTA, and then diluted with fully supplemented MEM growth medium. Cells were pelleted at 80 × g for 5 min and resuspended in fully supplemented growth medium. Cells were seeded into 96-well plates (5 × 10^4/well) and allowed to adhere prior to exposure to test compounds. Plates were incubated at 37°C in the presence of 5% CO2 for 72 h. After incubation, resazurin (20 μl of a 2.5-mg/ml^−1 stock solution) was added to each well, followed by incubation for a further 2 h prior to fluorescence being read as described above.

A further test concerns HepG2 cells. Kind of test: HepG2 drug sensitivity assay (resazurin). The test is classed as cell-based. The conditions noted are these: Homo sapiens; Mammalian HepG2; 72 h; weighted mean, n ≥ 3; read-out: Mean compound 1 EC50 ± SD. The method, then:
as §1

In test [3] the test system is T. cruzi malic enzyme (cTcME). Kind of test: Malic enzyme assay in clarified epimastigote lysates (NADPH production, 340 nm). The test is classed as biochemical, Trypanosoma cruzi. From the text: Malic enzyme (ME) catalyzes the oxidative decarboxylation of malate to pyruvate with the concomitant reduction of NAD(P)^+ to NAD(P)H. In light of our TPP studies, we next sought to determine whether the binding of compound 1 to cTcME inhibits enzymatic activity. The ME-dependent production of NADPH was monitored in clarified lysates of T. cruzi epimastigotes at 340 nm after the addition of malate. In the first instance, this assay was validated using ATR-073, an established inhibitor of cTcME ([27]). […] Similarly, preincubation of lysates with 20 μM and 1 μM concentrations of compound 1 inhibited ME activity by 96 and 68%, respectively (Fig. 4C). […] It should be noted that ATR-073 and compound 1 are structurally similar, both being substituted N-phenyl aryl sulfonamides, this common moiety constituting the pharmacophore of this chemical series.
Logarithmic T. cruzi epimastigotes were harvested (1,690 × g, 10 min, 4°C), washed once in ice-cold phosphate-buffered saline, and resuspended at 2 × 10^9 cells ml^−1 in lysis buffer (10 mM phosphate buffer [pH 7.2], 10 mM EDTA, 5 mM benzamidine, 5 mM phenanthroline, 0.1 mM phenylmethylsulfonyl fluoride) containing 1 mg ml^−1 digitonin, followed by incubation at 28°C for 10 min. The resulting lysate was then centrifuged (13,000 × g, 10 min, 4°C), and the supernatant was harvested and stored on ice. The protein concentration of this clarified lysate was determined by using a standard Bio-Rad protein assay.
The activity of malic enzyme was assayed as previously described ([42]), with minor modifications. T. cruzi clarified lysate (30 μl) was added to a reaction mixture (500 μl final volume) containing 50 mM Tris-HCl buffer (pH 7.6), 1 mM MnCl2, and 0.12 mM NADP^+. Reactions were initiated by the addition of 5 mM L-malate. The reduction of NADP^+ was monitored at 340 nm using a UV-2401 spectrophotometer (Shimadzu). To monitor the effect of test compounds on the activity of malic enzyme, compounds (1 and 20 μM) were preincubated for 10 min with the lysate in the reaction mixture. DMSO (0.2%) was used as control. All enzymatic activities were calculated as Δabs min^−1 mg^−1 of protein.

In test [4] the test system is L. donovani intramacrophage. Also noted: method as in Peña et al. (12). The conditions noted are these: ref Peña et al. (12), read-out: Mean compound 1 EC50; cited from earlier work.

Where two headings read alike, the source gives them in different places.

Broadly, the EC50 is the concentration at which the effect is half-maximal. For the compound `COc1ccc(NS(=O)(=O)c2cc(-c3cc(C)n[nH]3)ccc2C)cc1OC` [Compound 1], the EC50 in test [1] (T. cruzi Intra-Vero, weighted mean, n ≥ 3, read-out: Mean compound 1 EC50 ± SD) was 1300 ± 200 nM; in test [1] (in Vero cells, cell line ME OE, (*) one biological replicate, read-out: EC50 values), 800 ± 70 nM; in test [1] (in Vero cells, cell line RES 1, read-out: EC50 values) it was 10000 ± 5000 nM; in test [1] (in Vero cells, cell line RES 5, read-out: EC50 values) it was more than 50000 nM; in test [1] (in Vero cells, cell line Wild-type, read-out: EC50 values), 1000 ± 200 nM; in test [1] (in Vero cells, cell line β5 OE rescue R1, (*) one biological replicate, read-out: EC50 values), 3000 ± 200 nM. Also, the EC50 in test [1] (in Vero cells, cell line β5 OE, read-out: EC50 values) is 1000 ± 200 nM; in test [1] (read-out: EC50 values, in Vero cells, cell line β4 F24L/I29M), more than 23000 nM; in test [1] (read-out: EC50 values, in Vero cells, cell line β5 D225N-OE, (*) one biological replicate) it was 12000 ± 1400 nM; in test [2], 700 ± 100 nM; with HepG2 cells, 23 ± 3 µM; in test [4] it was 8 µM. Further, the “fold change versus WT” value in test [1] (in Vero cells, cell line ME OE) was 1 fold; in test [1] (in Vero cells, cell line RES 1) it was 8 fold; in test [1] (in Vero cells, cell line RES 5), more than 42 fold; in test [1] (in Vero cells, cell line Wild-type), 1 fold; in test [1] (in Vero cells, cell line β4 F24L/I29M), more than 19 fold; in test [1] (in Vero cells, cell line β5 D225N-OE), 10 fold. Moreover, the “fold change versus WT” value in test [1] (in Vero cells, cell line β5 OE) stood at 1 fold; in test [1] (in Vero cells, cell line β5 OE rescue R1), 2 fold. Further, the “reduction in ME activity” value in test [3] (preincubation of lysates with 1 μM) is 68%; in test [3] (preincubation of lysates with 20 μM), 96%.
